Entries after “also recorded” stand apart in the source; their conditions may differ.
Experiments:
[1] = test system: TLR7-mediated NF-κB signaling pathway (IKKα/β, IκBα, p65); test: Western blot, NF-κB pathway in R837-stimulated RAW264.7 cells; assay type: cell-based, mouse; conditions: R837-stimulated RAW264.7
Experimental: RAW264.7 cells (2×10^6 cells/well) were plated into 6-well plates and then incubated at 37°C in 5% CO2 for 24 h. After incubated with various concentrations of EFL2 (1, 5 and 10 µM) for 1 h, cells were then stimulated by R837 (20 μg/ml) for 30 min. Cell lysates were prepared by direct lysis in 20 µL IP buffer (Beyotime Biotechnology, Shanghai, China). After obtaining the whole cell extracts, the cytosolic and nuclear were seperated using Nuclear and Cytoplasmic Protein Extraction Kit (Beyotime Biotechnology, Shanghai, China). BCA Protein Assay Kit (Beyotime Biotechnology, Nantong, China) was applied to determine the protein concentrations. The bands corresponding to p- IKKα/β, IKKα/β, p-IκBα, IκBα, p-p65, p65, p-IRAK4, IRAK4, p-IKKβ, IKKβ, p-IRF5, IRF5, β-actin and Lamin B were visualized using a Western Blot Detection Chemiluminescence Kit (Merck). Protein extracted from the total lysates/cytoplasm and nucleus was quantified in relation to β-actin and Lamin B bands, respectively.
The antibodies used in the experiments were as follows: rabbit anti-mouse IKKα/β polyclonal antibody (1:1,000, Abways, China), rabbit anti-mouse IκBα polyclonal antibody (1:1,000, Abgent, China), rabbit anti-mouse p65 polyclonal antibody (1:1,000, Abgent, China), rabbit anti-mouse phosphorylated IKKα (Ser176)/β (Ser177) (1:1,000, Abways, China), rabbit anti-mouse phosphorylated IκBα (1:1,000, Abcam, United States), rabbit anti-mouse phosphorylated p65 (1:1,000, Abcam, United States), rabbit anti-mouse IRAK4 polyclonal antibody (1:1,000, Proteintech, United States), rabbit anti-mouse phosphorylated IRAK4 (Thr345/Ser346) (1:1,000, Affinity, United States), rabbit anti-mouse IKKβ polyclonal antibody (1:1,000, Abbkine, United States), rabbit anti-mouse phosphorylated IKKβ (Ser177) (1:1,000, Abways, China), rabbit anti-mouse IRF5 polyclonal antibody (1:1,000, Immunoway, United States), rabbit anti-mouse phosphorylated IRF5 (Ser437) (1:1,000, Affinity, United States), anti-mouse actin monoclonal antibody (1:20,000, Transgen, China) and rabbit anti-mouse LaminB monoclonal antibody (1:5,000, Abways, China).

[2] = test system: TLR7 (R837) induced cytokine production in PBMCs; test: ELISA of IL-1β and IL-6 in supernatant of R837 stimulated PBMCs; assay type: cell-based, human; conditions: R837-stimulated human PBMCs
Experimental: RAW264.7 cells, a mouse macrophage cell line, were cultured in DMEM medium containing 10% fetal bovine serum (FBS), 1% penicillin-streptomycin and maintained at 37 °C in 5% CO2 humidified air. Bone marrow-derived macrophages (BMDMs) generation was performed as following description. In brief, bone marrow cells were harvested from tibias and femurs of C57BL/6 mice and differentiated for 7 days in DMEM medium supplemented with 10% FBS, 1% penicillin-streptomycin and 50 ng/ml M-CSF. For human peripheral blood mononuclear cells (PBMCs) preparation, 5 ml peripheral venous blood was obtained from healthy donors in West China Hospital. PBMCs were isolated with Human Lymphocyte Separation Medium (LTS1077, Tian Jing, China) according to the manufacturer’s instructions. The experimental protocols were performed according to the approved guidelines established by the Institutional Human Research Subject Protection Committee of the Ethics Committee of West China Hospital, Sichuan University, China.
RAW264.7 cells (5×10^5/ml), BMDMs (5×10^5/ml) and PBMCs (2×10^6/ml) were plated in 96-well plates and incubated overnight. […]
IL-4, IL-17A and TNF-α in sera from different group mice were measured using CBA Multiplex kit (BD, United States). The concentrations of IL-1β and IL-6 in serum or supernatant were detected by ELISA Kit (MULTI SCIENCES, China) according to the manufacturers’ instructions.

[3] = test system: K/BxN serum-transfer arthritis (STA) model; test: K/BxN serum-transfer arthritis (STA) model, arthritic index / clinical score; assay type: in vivo, C57BL/6 mice; conditions: STA mice
Experimental: K/BxN serum was collected from K/BxN mice at 8 weeks of age, pooled, aliquoted and stored at -20 °C. K/BxN serum-transfer arthritis (STA) model was induced by intraperitoneal (i.p.) application of 150 μL of serum at day 0. Clinical score for arthritis severity was assessed using a 0–4 point scale for each paw at various time points (0–16 total score) as described previously ([Luo et al., 2011]). 8-week old male C57BL/6 mice were purchased from Dashuo Animal Center (China, Chengdu), maintained at 25°C, and exposed to 12-h light and dark cycles. Mice were fed with standard laboratory chow and water with 1 week of acclimatization. Naive mice were used as the control group. Except the control mice, all mice were i. p. injected with 150 μL of serum, then randomly divided into the following groups and treated with different compounds daily for the consecutive 8 days: 1) STA group; 2) Solvent control group, mice were gavaged with the solvent; 3) Dexamethasone (DEX) group, mice were gavaged with 30 mg/kg DEX; 4) EFL2 group 1, mice were gavaged with 40 mg/kg EFL2; 5) EFL2 group 2, mice were intraperitoneally injected with 15 mg/kg EFL2; 6) EFL2 group 3, […] were intraperitoneally injected with 40 mg/kg EFL2. […] All animal experiments were conducted in accordance with ethical regulation for animal care and use in China.

C=C1C(OC(=O)c2ccccc2)CC2C(C=C(C)C(=O)C3(OC(C)=O)CC(C)C(OC(=O)c4ccccc4)C3C1OC(C)=O)C2(C)C (centres unmarked) [EFL2, Euphorbia factor L2]
IKKα/β phosphorylation ([1]; EFL2 1, 5, 10 μM): effectively inhibited
IκB-α phosphorylation ([1]; EFL2 1, 5, 10 μM): effectively inhibited
p65 phosphorylation ([1]; EFL2 1, 5, 10 μM): effectively inhibited
NF-κB subunit p65 translocation activity ([1]; EFL2, also immunofluorescence): significantly suppressed
suppressive effect on IL-1β production compared with IL-6 [2]: prior to that on IL-6
arthritis symptoms (clinical score) ([3]; EFL2 15 mg/kg i.p. daily, particularly acute phase): to a moderate extent, alleviated
joint swelling and redness (clinical score) ([3]; EFL2 40 mg/kg i.p. daily): dramatically improved
arthritis severity (clinical score) ([3]; EFL2 40 mg/kg oral (gavage) daily, 40 mg/kg): did not affect; also recorded: hardly improved

From publication PMC8691750, “Euphorbia Factor L2 ameliorates the Progression of K/BxN Serum-Induced Arthritis by Blocking TLR7 Mediated IRAK4/IKKβ/IRF5 and NF-kB Signaling Pathways” (Frontiers in Pharmacology, 2021)
